IC50 and Kd data for two molecules are collected here from paper PMC6614837 (Nucleic Acids Research, 2019).

Data set [1] concerns the target T1, RNase P holoenzyme from Thermotoga maritima (Thermotoga maritima, UniProt Q9X1H4).
T1 construct: made in house
T1 sequence (Q9X1H4 1-117): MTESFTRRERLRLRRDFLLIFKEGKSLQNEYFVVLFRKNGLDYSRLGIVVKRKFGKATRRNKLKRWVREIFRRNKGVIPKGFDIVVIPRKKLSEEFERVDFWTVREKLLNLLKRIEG
The data set is described as follows: Real-time fluorescence-based (FRET) RNase P activity assay with minihelix (Mh) substrate. As to conditions: fluorescent Mh substrate 270 nM, holoenzyme 33 nM, 10% DMSO, 37°C, 400 mM AmOAc, 100 mM MgCl2. In kind it is biochemical. The essentials:
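Reconstituted holoenzyme (P RNA:P protein 1:1.1) at 33 nM with 270 nM minihelix labelled Alexa Fluor 488/BHQ quencher, in buffer H (pH 7.4, 400 mM AmOAc, 100 mM MgCl2), 10% DMSO, 37°C. Cleavage followed as fluorescence increase (ex 485, em 535 nm); initial velocities from linear slopes.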

The target in data set [2] is Bacillus subtilis RNase P. Set-up: method as in PMID 25249623. The settings on record: fluorescent pre-tRNA substrate ref 26; read-out: Reported IC50; cited from earlier work.
Data set [3] addresses T2, RNase P protein (TmP, P protein) (Thermotoga maritima, UniProt Q9X1H4 1-117).
T2 sequence: T1 sequence (Q9X1H4 1-117)
The data set is described as follows: BLI; 10 mM Mg2+, 5% DMSO; BLI (Octet RED96): 20 mM HEPES pH 7.4, 100 mM ammonium acetate, 10 mM MgCl2, 2.5-5% DMSO, 30 C; P protein:P RNA in 33 mM Tris, 66.6 mM HEPES, 200 mM ammonium acetate, 10 mM MgCl2, pH 7.4. The settings on record: protein: recombinant; tags: N-terminal His6 (GST fusion cleaved with TEV); single strand. (BLI is a label-free optical method that tracks binding on a fibre tip over time.)

What is called IC50 is the concentration at which inhibition is half-maximal. Take `CC(=O)Oc1cc(-c2coc3cc(OC(C)=O)c(OC(C)=O)c(OC(C)=O)c3c2=O)cc(OC(C)=O)c1OC(C)=O` [iriginol hexaacetate, reference compound]: the results for the half-inhibitory concentration (IC50) in data set [1] and in data set [2] were 29500 nM and 800 nM, respectively.

B1: 5' RNA leader (10 nt) (ssRNA)
RNA: GGAAAAAGAU
One may read the Kd as the equilibrium constant for the complex coming apart. In the case of B1, in data set [3], the dissociation constant Kd is 35.6 nM.
